Results from patent US4556713A, “6-Fluoro-5-nitroquinaldine” (Riker Laboratories, Inc., priority 1984, dated 1985).
In brackets after ≈: the same amount, converted by molar mass. Read-outs that look alike come from different tables or passages of the source.

How the values were obtained:
STREP. SPECIES = test: Plate dilution antimicrobial susceptibility, Strep. species; settings: for Minimum Inhibitory Concentration: Strep. species; for MIC: 24 h, read-out: Minimum Inhibitory Concentration, Strep. species
Protocol: (§1) Tryptone soy agar (oxoid) of the following composition is the culture medium.
(§2) A series of plates with these concentrations is prepared. Ten percent horse serum is added to one series of such plates. Aliquots of broth culture of any of twelve species of microorganisms are innoculated onto the agar plates contaning the various compound concentrations. The plates are incubated at 37° C. in a 10 percent carbon dioxide atmosphere for 18 to 24 hours. The microbial growth on each plate is read visually, and minimal inhibitory concentrations are recorded.
(§3) The tests were run both in the absence and in the presence of horse serum as described hereinabove.

Escherichia coli = test: Plate dilution antimicrobial susceptibility, Escherichia coli; settings: for MIC: 24 h, read-out: Minimum Inhibitory Concentration
Protocol: as §1, §2, §3

Staphylococcus aureus = test: Plate dilution antimicrobial susceptibility, Staphylococcus aureus; settings: for MIC: 24 h, read-out: Minimum Inhibitory Concentration
Protocol: as §1, §2, §3

Pseudomonas aeruginosa = test: Plate dilution antimicrobial susceptibility, Pseudomonas aeruginosa; settings: for MIC: 24 h, read-out: Minimum Inhibitory Concentration
Protocol: as §1, §2, §3

ENTEROCOCCUS = test: Plate dilution antimicrobial susceptibility, Enterococcus; settings: for MIC: 24 h
Protocol: as §1, §2, §3

Klebsiella pneumoniae = test: Plate dilution antimicrobial susceptibility, Klebsiella pneumoniae; settings: for MIC: 24 h, read-out: Minimum Inhibitory Concentration
Protocol: as §1, §2, §3

[1] = system: gram-positive and gram-negative microorganisms; test: Plate dilution method, antimicrobial activity in general (gram-positive and gram-negative microorganisms); assay type: cell-based; settings: in vitro
[2] = presence of 10 percent horse serum
[3] = read-out: Minimum Inhibitory Concentration, Enterococcus, absence of horse serum
[4] = read-out: Minimum Inhibitory Concentration, Enterococcus, presence of 10 percent horse serum

Row | Structure (SMILES) | Minimum Inhibitory Concentration (STREP. SPECIES; absence of horse serum) | Minimum Inhibitory Concentration (STREP. SPECIES; [2]) | Minimum Inhibitory Concentration (Escherichia coli; absence of horse serum) | Minimum Inhibitory Concentration (Escherichia coli; [2]) | Minimum Inhibitory Concentration (Staphylococcus aureus; absence of horse serum) | Minimum Inhibitory Concentration (Staphylococcus aureus; [2]) | Minimum Inhibitory Concentration (Pseudomonas aeruginosa; absence of horse serum) | Minimum Inhibitory Concentration (Pseudomonas aeruginosa; [2]) | Minimum Inhibitory Concentration (ENTEROCOCCUS; absence of horse serum) | Minimum Inhibitory Concentration (ENTEROCOCCUS; [2]) | Minimum Inhibitory Concentration (Klebsiella pneumoniae; absence of horse serum) | Minimum Inhibitory Concentration (Klebsiella pneumoniae; [2]) | other results
1 | CC1CCc2cc(Br)cc3c(=O)c(C(=O)O)cn1c23 (stereo not shown) [Example 9-Br] | 100 mg/L | 100 mg/L | 10 mg/L | 10 mg/L | 100 mg/L | 100 mg/L | I | I |  |  |  |  | 
2 | CC1CCc2cc(F)cc3c(=O)c(C(=O)O)cn1c23 (stereo not shown) [Example 9-F] | 100 mg/L | 100 mg/L | 1 mg/L | 1 mg/L | 10 mg/L | 10 mg/L | 100 mg/L | 100 mg/L | 100 mg/L | 100 mg/L | 1 mg/L | 1 mg/L | 
3 | CC1CCc2c(Br)c(F)cc3c(=O)c(C(=O)O)cn1c23 (stereo not shown) [8-Br, 9-F, 8-bromo-6,7-dihydro-9-fluoro-5-methyl-1-oxo-1H,5H-benzo[ij]quinolizine-2-carboxylic acid] |  |  |  | .1 mg/L |  | .1 mg/L |  | 10 mg/L |  |  |  | 1 mg/L | MIC (ENTEROCOCCUS; [3]): 1 µg/mL (≈ 2.94 µM); MIC (ENTEROCOCCUS; [4]): 1 µg/mL; MIC (STREP. SPECIES; absence of horse serum): 1 µg/mL (≈ 2.94 µM); MIC (STREP. SPECIES; [2]): 10 µg/mL; MIC (Escherichia coli): 0.1 µg/mL (≈ 0.294 µM); MIC (Staphylococcus aureus): 0.1 µg/mL (≈ 0.294 µM); MIC (Klebsiella pneumoniae): 1 µg/mL (≈ 2.94 µM); MIC (Pseudomonas aeruginosa): 10 µg/mL (≈ 29.4 µM)
4 | CC1CCc2c(Cl)ccc3c(=O)c(C(=O)O)cn1c23 (stereo not shown) [Example 8-Cl] | 10 mg/L | 100 mg/L | 1 mg/L | 1 mg/L | 1 mg/L | 1 mg/L | 100 mg/L | 100 mg/L | 10 mg/L | 10 mg/L | 10 mg/L | 10 mg/L | 
5 | CC1CCc2c(N)c(F)cc3c(=O)c(C(=O)O)cn1c23 (stereo not shown) [8-amino compound, 8-amino-6,7-dihydro-9-fluoro-5-methyl-1-oxo-1H,5H-benzo[ij]quinolizine-2-carboxylic acid] |  |  |  |  |  |  |  |  |  |  |  |  | antimicrobial activity (in words) [1]: good antimicrobial activity against many species of microorganisms
6 | CC1CCc2c(Br)c(F)cc3c(=O)c(C(=O)[O-])cn1c23.[Na+] (stereo not shown) [8-Br, 9-F sodium salt, sodium 8-bromo-6,7-dihydro-9-fluoro-5-methyl-1-oxo-1H,5H-benzo[ij]quinolizine-2-carboxylate] |  |  |  | .1 mg/L |  | .1 mg/L |  | 10 mg/L |  | 1 mg/L |  |  | 
7 | CC1CCc2cc(Cl)cc3c(=O)c(C(=O)O)cn1c23 (stereo not shown) [Example 9-Cl] | 100 mg/L | 100 mg/L | 1 mg/L | 1 mg/L | 10 mg/L | 10 mg/L | I | I |  |  |  |  | 
8 | CC1CCc2c(N)c(Cl)cc3c(=O)c(C(=O)O)cn1c23 (stereo not shown) [8-NH2,9-Cl] | I | I | 10 mg/L | 10 mg/L | 100 mg/L | 100 mg/L | I | I | I | I | 100 mg/L | 100 mg/L | 
9 | CC1CCc2c(Cl)c(F)cc3c(=O)c(C(=O)[O-])cn1c23.[Na+] (stereo not shown) [8-Cl, 9-F sodium salt, sodium 8-chloro-6,7-dihydro-9-fluoro-5-methyl-1-oxo-1H,5H-benzo[ij]quinolizine-2-carboxylate] |  |  |  |  |  |  |  | 10 mg/L |  | 1 mg/L |  | 1 mg/L | 
10 | CC1CCc2c(Cl)c(F)cc3c(=O)c(C(=O)O)cn1c23 (stereo not shown) [8-Cl, 9-F, 8-chloro-6,7-dihydro-9-fluoro-5-methyl-1-oxo-1H,5H-benzo[ij]quinolizine-2-carboxylic acid] |  |  |  | .1 mg/L |  |  |  | 10 mg/L |  |  |  | 1 mg/L | MIC (ENTEROCOCCUS; [3]): 1 µg/mL (≈ 3.38 µM); MIC (ENTEROCOCCUS; [4]): 10 µg/mL; MIC (STREP. SPECIES; [2]): 10 µg/mL; MIC (Escherichia coli): 0.1 µg/mL (≈ 0.338 µM); MIC (Staphylococcus aureus): 0.1 µg/mL (≈ 0.338 µM); MIC (Klebsiella pneumoniae): 1 µg/mL (≈ 3.38 µM); MIC (Pseudomonas aeruginosa): 10 µg/mL (≈ 33.8 µM)
11 | Cc1cc2c(=O)c(C(=O)O)cn3c2c(c1Cl)CCC3C (stereo not shown) [8-Cl, 9-CH3] | 100 mg/L | 100 mg/L | 10 mg/L | 10 mg/L | 10 mg/L | 100 mg/L | 100 mg/L | I | 100 mg/L | I | 100 mg/L | 100 mg/L | 
12 | CC(=O)Nc1c(Cl)cc2c(=O)c(C(=O)O)cn3c2c1CCC3C (stereo not shown) [8-NHCOCH3, 9-Cl] | I | I | 10 mg/L | 10 mg/L | I | I | I | I | I | I | 100 mg/L | 100 mg/L | 
13 | COc1cc2c(=O)c(C(=O)O)cn3c2c(c1Cl)CCC3C (stereo not shown) [8-Cl, 9-OCH3] | 100 mg/L | 100 mg/L | 10 mg/L | 10 mg/L | 10 mg/L | 10 mg/L | I | I | 100 mg/L | 100 mg/L | 100 mg/L | 100 mg/L | 
